The text below walks through data of PMC9238401, “Peptide Conjugates Derived from flg15, Pep13, and PIP1 That Are Active against Plant-Pathogenic Bacteria and Trigger Plant Defense Responses” (Applied and Environmental Microbiology, 2022).

One data set concerns tobacco leaves. The data set can be described thus: Effect of peptide infiltration on tobacco leaves (phytotoxicity). The format is in vivo. An outline of the steps: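 Phytotoxicity was scored as necrotic lesion diameter 48 h post-infiltration. Each peptide was infiltrated at 50, 150 or 250 μM into fully expanded tobacco leaf mesophyll, on ≥3 leaves from different plants, alongside water and same-molar melittin controls.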

For another data set, the system named is horse erythrocytes. As to conditions: TRIS buffer pH 7.2, 1 h, 37°C, absorbance 540 nm, relative to melittin 100 μM, ± confidence interval (α = 0.05). In outline:
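Hemolysis measured as absorbance at 540 nm of supernatant, expressed as percent of melittin-lysed control after buffer subtraction. Compound solutions (750, 500, 300, 100 μM, Tris-buffered saline pH 7.2) were combined 1:1 with washed horse red cells for 1 h, 37°C, shaking.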

Data set [1] relates to tomato plants cv. Rio Grande, defense-related genes. The data set can be described thus: Induction of defense gene expression in tomato plants (RT-qPCR). The note with it: peptide sprayed at 125 μM, leaves 24 h after application, ΔΔCT vs actin and nontreated control; for PR1 expression, fold induction: above 2 = overexpression. The format is in vivo. As for the experimental part:
The capacity to induce the expression of genes related to defense response in tomato plants was evaluated for the peptide conjugates flg15-BP387, flg15-BP475, and PIP1-BP475 and the monomers flg15 and PIP1 (Table 2).
Seeds of tomato cv. Rio Grande plants were sown in hydroponic seed plugs (rockwool) and germinated and grown in an environmentally controlled greenhouse at 25 ± 2°C (day) and 18 ± 2°C (night), with a minimum relative humidity of 60% and with a photoperiod of 16 h light and 8 h dark. Then, 2-week-old seedlings (two cotyledons) were transplanted into rockwool plugs (7.5 × 7.5 × 6.5 cm; Gordan Iberica, Spain). Tomato plants were maintained until use under the same environmental conditions.
The 2-week-old tomato plants cv. Rio Grande were sprayed with aqueous solutions of the peptides flg15-BP387, flg15-BP475, PIP1-BP475, flg15, and PIP1 at 125 μM until the runoff point. […] Water-sprayed plants were used as nontreated controls (NTC). The experimental design consisted of three replicates of three plants per treatment. Leaf samples were collected 24 h after product application and processed to extract RNA for reverse transcriptase quantitative PCR (RT-qPCR) assays. Plant material was roughly ground in liquid nitrogen and was transferred into tubes with two glass beads. Afterward, the frozen samples were finely ground using the TissueLyser II system (Qiagen, Hilden, Germany) at a frequency of 30 Hz for 1 min. Total RNA was extracted from leaves (100 mg) using PureLink plant RNA reagent (Invitrogen, Life Technologies) according to the manufacturer’s manual. The RNA was solubilized in RNase-free water (Ambion, Thermo Fisher Scientific, USA) and was routinely subjected to DNase treatment (Ambion Turbo DNA-free; Invitrogen Life Technologies, Carlsbad, CA, USA) to remove any contaminant DNA. In each step, the RNA was quantified using a NanoDrop ND-1000 spectrophotometer (Nanodrop Technologies, Wilmington, DE, USA). First-strand cDNA was generated from leaf RNA using reverse transcriptase (high-capacity cDNA reverse transcription kit; Applied Biosystems, Foster City, CA, USA) according to the manufacturer’s manual.
To test gene defense induction in the treated tomato plants, a quantitative PCR (qPCR) assay was performed. qPCR was carried out in a fluorometric thermal cycler (7500 Fast real-time PCR system; Applied Biosystems, USA) by using a Mix SYBR green PCR master mix (Applied Biosystems, Foster City, CA, USA) as previously described ([49]). Melting curve analysis was performed after each amplification to verify amplification specificity. A constitutive gene (actin) was used as a reference control ([52]), and the following genes implicated in plant defense response were analyzed using the previously described primers: pathogenesis-related protein-1 (PR1) and chitinase A (PR3) ([81]), subtilisin-like protease P69G (PR7), peroxidase 1 (PR9), WRKY3 transcription factor (WRKY3), hairpin-induced protein-like (Harp), blue-copper-binding protein gene (BCB) and ethylene responsive transcription factor (ERF) ([71]), and basic β-1,3-endoglucanase (GluB) ([52]). The primer concentration was 100 nM for all the genes except for the actin gene, for which the concentration was 300 nM. A calibration curve was prepared by cloning the corresponding target sequence in the pSpark cloning vector (Canvax, Córdoba, Spain), which was used to transform Escherichia coli DH5α. Plasmids were purified (Qiagen Iberia, S.L., Madrid, Spain), plasmid copies were quantified, and decimal dilutions were prepared.
Background: Quantitative PCR measures a nucleic acid by following its amplification.

The mark [2] stands for this setting: 100 μL infiltrated into mesophyll, lesion diameter 48 h after infiltration, at least three leaves, ± confidence interval (α = 0.05).

Marks after values point to notes of the source that are not given here. Non-standard residues stand in square brackets, D forms with d. Residues, ends and D or L forms follow the SMILES beside them. *: point of attachment. Butyryl = CCCC(=O)*

Turning to `CCCC(=O)NCCCC[C@H](NC(=O)[C@H](CCCCN)NC(=O)[C@H](CC(C)C)NC(=O)[C@@H](NC(=O)[C@H](CCCCN)NC(=O)[C@H](CCCCN)NC(=O)[C@@H](Cc1ccccc1)NC(=O)[C@H](CC(C)C)NC(=O)[C@H](CCCCN)NC(=O)[C@H](CCCCN)NC(=O)[C@H](Cc1c[nH]cn1)NC(=O)[C@@H](NC(=O)[C@H](Cc1c[nH]cn1)NC(=O)[C@@H](NC(=O)CNC(=O)[C@H](Cc1ccc(O)cc1)NC(C)=O)[C@@H](C)CC)[C@@H](C)O)[C@@H](C)CC)C(=O)N[C@@H](CC(C)C)C(N)=O` [PIP1-BP475] (Ac-YGIHTHKKL[dF]KKILKK(Butyryl)L-NH2), in the data set with tobacco leaves (setting [2]), the “Size of the lesions in infiltrated tobacco leaves at 50 μM” value (shortened to “Size of the lesions … at 50 μM”) amounted to 0.47 ± 0.13 cm, the “Size of the lesions in infiltrated tobacco leaves at 150 μM” value (shortened to “Size of the lesions … at 150 μM”) is listed as 1.03 ± 0.06 cm and the “Size of the lesions in infiltrated tobacco leaves at 250 μM” value (“Size of the lesions … at 250 μM” below) is reported as 1.17 ± 0.06 cm. Further, in the data set with horse erythrocytes, the “Percent hemolysis at 50 μM” value was determined as 4 ± 0.4%, the “Percent hemolysis at 150 μM” value is 11 ± 0.5%, the “Percent hemolysis at 250 μM” value was 18 ± 0.1% and the “Percent hemolysis at 375 μM” value is 24 ± 0.5%. Also, in data set [1], the “BCB expression, fold induction” value is on record as 2.07 ± 0.11^d fold; the “ERF expression, fold induction” value worked out at 0.81 ± 0.30 fold; the “GluB expression, fold induction” value is reported as 0.80 ± 0.07 fold; the “Harp expression, fold induction” value is listed as 2.25 ± 0.12^d fold. In data set [1], the “PR3 expression, fold induction” value is 7.36 ± 1.05^d fold; the “PR7 expression, fold induction” value is reported as 1.29 ± 0.19^d fold; the “PR9 expression, fold induction” value is on record as 1.99 ± 0.11^d fold; the “WRKY3 expression, fold induction” value turned out to be 1.46 ± 0.11 fold. In addition, the “PR1 expression, fold induction” value in data set [1] stood at 0.64 ± 0.36 fold.

For the compound “YGIHTH-NH2 [PIP1, plant defense elicitor peptide identified through combinatorial chemistry; monomer]”, in the data set on tobacco leaves (in vivo), the “Size of the lesions … at 50 μM” value was found to be 0 ± 0 cm, the “Size of the lesions … at 150 μM” value was found to be 0 ± 0 cm and the “Size of the lesions … at 250 μM” value was 0 ± 0 cm. In addition, in the data set on horse erythrocytes, the “Percent hemolysis at 50 μM” value is recorded as 4 ± 0.8%, the “Percent hemolysis at 150 μM” value was determined as 0.5 ± 0.3%, the “Percent hemolysis at 250 μM” value is listed as 0 ± 2% and the “Percent hemolysis at 375 μM” value worked out at 1 ± 0.1%. Besides, in data set [1], the “BCB expression, fold induction” value was 1.99 ± 0.40^d fold; the “ERF expression, fold induction” value is listed as 0.58 ± 0.11^d fold; the “GluB expression, fold induction” value is 0.96 ± 0.32 fold; the “Harp expression, fold induction” value was 1.97 ± 0.45^d fold. In data set [1], the “PR3 expression, fold induction” value is listed as 3.59 ± 1.35^d fold; the “PR7 expression, fold induction” value was 1.13 ± 0.26 fold; the “PR9 expression, fold induction” value is reported as 1.23 ± 0.18 fold; the “WRKY3 expression, fold induction” value is listed as 0.94 ± 0.35 fold. Further, the “PR1 expression, fold induction” value in data set [1] amounted to 1.00 ± 0.39 fold.

For `CCCC(=O)NCCCC[C@H](NC(=O)[C@H](CCCCN)NC(=O)[C@H](CC(C)C)NC(=O)[C@@H](NC(=O)[C@H](CCCCN)NC(=O)[C@H](CCCCN)NC(=O)[C@@H](Cc1ccccc1)NC(=O)[C@H](CC(C)C)NC(=O)[C@H](CCCCN)NC(=O)[C@H](CCCCN)NC(=O)[C@H](C)NC(=O)[C@@H](NC(=O)[C@H](CCC(N)=O)NC(=O)[C@H](CC(C)C)NC(=O)CNC(=O)[C@H](C)NC(=O)[C@H](C)NC(=O)[C@H](CC(=O)O)NC(=O)[C@H](CC(=O)O)NC(=O)[C@H](CCCCN)NC(=O)[C@H](C)NC(=O)[C@H](CO)NC(=O)[C@H](CC(N)=O)NC(=O)[C@@H](NC(=O)[C@H](CCCNC(=N)N)NC(C)=O)[C@@H](C)CC)[C@@H](C)CC)[C@@H](C)CC)C(=O)N[C@@H](CC(C)C)C(N)=O` [flg15-BP475] (Ac-RINSAKDDAAGLQIAKKL[dF]KKILKK(Butyryl)L-NH2), in the data set with tobacco leaves (setting [2]), the “Size of the lesions … at 50 μM” value is 0.60 ± 0 cm, the “Size of the lesions … at 150 μM” value was found to be 1.20 ± 0 cm and the “Size of the lesions … at 250 μM” value stood at 1.37 ± 0.06 cm. Further, in the data set with horse erythrocytes, the “Percent hemolysis at 50 μM” value is on record as 7 ± 0.6%, the “Percent hemolysis at 150 μM” value is recorded as 28 ± 2.3%, the “Percent hemolysis at 250 μM” value came out at 43 ± 2.7% and the “Percent hemolysis at 375 μM” value was 46 ± 3.6%. In addition, in data set [1], the “BCB expression, fold induction” value is on record as 5.84 ± 1.38^d fold; the “ERF expression, fold induction” value is 0.67 ± 0.15^d fold; the “GluB expression, fold induction” value was 4.31 ± 0.82^d fold; the “Harp expression, fold induction” value is listed as 3.68 ± 0.91^d fold. Also, in data set [1], the “PR3 expression, fold induction” value is 10.96 ± 1.85^d fold; the “PR7 expression, fold induction” value is 5.82 ± 0.78^d fold; the “PR9 expression, fold induction” value was 3.83 ± 0.25^d fold; the “WRKY3 expression, fold induction” value is reported as 1.16 ± 0.26 fold. For the same compound, in data set [1], the “PR1 expression, fold induction” value was 2.02 ± 0.07^d fold.

On to “RINSAKDDAAGLQIA-OH [flg15, plant defense elicitor peptide, 15 amino acids of the N-terminal conserved domain of bacterial flagellin; monomer]”, for which, in the data set with tobacco leaves (setting [2]), the “Size of the lesions … at 50 μM” value stood at 0 ± 0 cm, the “Size of the lesions … at 150 μM” value worked out at 0 ± 0 cm and the “Size of the lesions … at 250 μM” value is 0 ± 0 cm. Also, in the data set with horse erythrocytes, the “Percent hemolysis at 50 μM” value worked out at 0 ± 0%, the “Percent hemolysis at 150 μM” value is listed as 0 ± 0%, the “Percent hemolysis at 250 μM” value worked out at 0 ± 0% and the “Percent hemolysis at 375 μM” value was 0 ± 0%. In addition, in data set [1], the “BCB expression, fold induction” value was 8.14 ± 2.48^d fold; the “ERF expression, fold induction” value amounted to 1.09 ± 0.44 fold; the “GluB expression, fold induction” value is listed as 6.05 ± 2.40^d fold; the “Harp expression, fold induction” value is reported as 4.28 ± 1.49^d fold. In addition, in data set [1], the “PR3 expression, fold induction” value is 17.68 ± 4.18^d fold; the “PR7 expression, fold induction” value was 9.26 ± 2.06^d fold; the “PR9 expression, fold induction” value is on record as 6.24 ± 2.25^d fold; the “WRKY3 expression, fold induction” value is listed as 1.41 ± 0.84 fold. Further, the “PR1 expression, fold induction” value in data set [1] is listed as 8.32 ± 3.35^d fold.
